Results published in patent US12404283B2, “c-MYC mRNA translation modulators and uses thereof in the treatment of cancer” (Anima Biotech Inc., priority 2022, dated 2025).

Test system: c-Myc
Assay: c-Myc immunofluorescence assay
Assay type: cell-based, human
Settings: A549 cells, 24 hours treatment, anti-c-Myc immunofluorescence
Procedure, shortened: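 A549 cells grown 48 h, exposed 24 h to rising compound concentrations, then fixed, permeabilised and stained for c-Myc plus DAPI. Nuclear-segmented c-Myc fluorescence quantified by high-content imaging at 20×; EC50 from logistic dose–response fits.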

SMILES	Myc Efficacy (−LogEC50)
CCN(CC)CCCN(C)C(=O)c1ccc2c(c1)sc1nc(-c3ccc(C(=O)NC)cc3)cn12 [compound 180, N-(3-(diethylamino)propyl)-N-methyl-2-(4-(methylcarbamoyl)phenyl) benzo[d]imidazo[2,1-b]thiazole-7-carboxamide]	+ (+ >3 and <5)
CCN(CC)CCCN(C)C(=O)c1ccc2c(c1)sc1nc(-c3cccc(C)c3)cn12 [compound 181, N-(3-(diethylamino)propyl)-N-methyl-2-(m-tolyl)benzo[d]imidazo[2,1-b]thiazole-7-carboxamide]	++ (++ ≥5 and <6)
CNC(=O)c1ccc(-c2cn3c(n2)sc2cc(C(=O)NC[C@H]4COCCO4)ccc23)cc1 [compound 182, (S)-N-((1,4-dioxan-2-yl)methyl)-2-(4-(methylcarbamoyl)phenyl) benzo[d]imidazo[2,1-b]thiazole-7-carboxamide]	− (− ≤3)
CNC(=O)c1ccc(-c2cn3c(n2)sc2cc(C(=O)NCCN4CC5(COC5)C4)ccc23)cc1 [compound 183, N-(2-(2-oxa-6-azaspiro[3.3]heptan-6-yl)ethyl)-2-(4-(methylcarbamoyl)phenyl) benzo[d]imidazo[2,1-b]thiazole-7-carboxamide]	+ (+ >3 and <5)
CNC(=O)c1ccc(-c2cn3c(n2)sc2cc(C(=O)NCCN4CCN(C)CC4)ccc23)cc1 [compound 184, 2-(4-(methylcarbamoyl)phenyl)-N-(2-(4-methylpiperazin-1-yl)ethyl)benzo[d]imidazo [2,1-b]thiazole-7-carboxamide]	+ (+ >3 and <5)
CNC(=O)c1ccc(-c2cn3c(n2)sc2cc(C(=O)NC4CCNCC4)ccc23)cc1 [compound 185, 2-(4-(methylcarbamoyl)phenyl)-N-(piperidin-4-yl)benzo[d]imidazo[2,1-b]thiazole-7-carboxamide]	++ (++ ≥5 and <6)
CNC(=O)c1ccc(-c2cn3c(n2)sc2cc(C(=O)N[C@@H](C)COC)ccc23)cc1 [compound 186, (S)-N-(1-methoxypropan-2-(methylcarbamoyl)phenyl) benzo[d]imidazo[2,1-b]thiazole-7-carboxamide]	+ (+ >3 and <5)
CNC(=O)c1ccc(-c2cn3c(n2)sc2cc(C(=O)NC(C)CCO)ccc23)cc1 (centres unmarked) [compound 187, N-(4-hydroxybutan-2-yl)-2-(4-(methylcarbamoyl)phenyl) benzo[d]imidazo[2,1-b]thiazole-7-carboxamide]	− (− ≤3)
CC[C@@H](CO)NC(=O)c1ccc2c(c1)sc1nc(-c3ccc(C(=O)NC)cc3)cn12 [compound 188, (S)-N-(1-hydroxybutan-2-yl)-2-(4-(methylcarbamoyl)phenyl) benzo[d]imidazo[2,1-b]thiazole-7-carboxamide]	+ (+ >3 and <5)
CNC(=O)c1ccc(-c2cn3c(n2)sc2cc(C(=O)NCCCOC)ccc23)cc1 [compound 189, N-(3-methoxypropyl)-2-(4-(methylcarbamoyl)phenyl) benzo[d]imidazo[2,1-b]thiazole-7-carboxamide]	− (− ≤3)
CNC(=O)c1ccc(-c2cn3c(n2)sc2cc(C(=O)NC4CCN(C(=O)C5CC5)CC4)ccc23)cc1 [compound 190, N-(1-(cyclopropanecarbonyl)piperidin-4-yl)-2-(4-(methylcarbamoyl)phenyl) benzo[d]imidazo[2,1-b]thiazole-7-carboxamide]	+ (+ >3 and <5)
CNC(=O)c1ccc(-c2cn3c(n2)sc2cc(C(=O)NCCC(=O)N4CCCCC4)ccc23)cc1 [compound 191, 2-(4-(methylcarbamoyl)phenyl)-N-(3-oxo-3-(piperidin-1-yl)propyl)benzo[d]imidazo [2,1-b]thiazole-7-carboxamide]	+ (+ >3 and <5)
CNC(=O)c1ccc(-c2cn3c(n2)sc2cc(C(=O)N[C@@H](CO)CC(C)C)ccc23)cc1 [compound 192, (R)-N-(1-hydroxy-4-methylpentan-2-yl)-2-(4-(methylcarbamoyl)phenyl) benzo[d]imidazo[2,1-b]thiazole-7-carboxamide]	− (− ≤3)
CCN(CCCN(C)C(=O)c1ccc2c(c1)sc1nc(-c3cccc(C)c3)cn12)CC(F)(F)F [compound 193, N-(3-(ethyl(2,2,2-trifluoroethyl)amino)propyl) N-methyl-2-(m-tolyl)benzo[d]imidazo[2,1-b]thiazole-7-carboxamide]	+ (+ >3 and <5)
CCN(CC)CCCNC(=O)c1ccc2c(c1)sc1nc(-c3cc(C)ccn3)cn12 [compound 194, N-(3-(diethylamino)propyl)-2-(4-methylpyridin-2-yl)benzo[d]imidazo[2,1-b]thiazole-7-carboxamide]	+ (+ >3 and <5)
CNC(=O)c1ccc(-c2cn3c(n2)sc2cc(C(=O)NCC4(O)COC4)ccc23)cc1 [compound 195, N-((3-hydroxyoxetan-3-yl)methyl)-2-(4-(methylcarbamoyl)phenyl) benzo[d]imidazo[2,1-b]thiazole-7-carboxamide]	− (− ≤3)

SMILES	Myc Efficacy (−LogEC50)
CNC(=O)c1ccc(-c2cn3c(n2)sc2cc(C(=O)NC[C@H]4CCNC[C@@H]4O)ccc23)cc1 [compound 196, N-(((3R,4R)-3-hydroxypiperidin-4-yl)methyl)-2-(4-(methylcarbamoyl)phenyl) benzo[d]imidazo[2,1-b]thiazole-7-carboxamide]	+ (+ >3 and <5)
CNC(=O)c1ccc(-c2cn3c(n2)sc2cc(C(=O)NC(C)C(=O)N(C)C)ccc23)cc1 (centres unmarked) [compound 197, N-(1-(dimethylamino)-1-oxopropan-2-yl)-2-(4-(methylcarbamoyl)phenyl) benzo[d]imidazo[2,1-b]thiazole-7-carboxamide]	+ (+ >3 and <5)
CNC(=O)c1ccc(-c2cn3c(n2)sc2cc(C(=O)NC4CN(C)C4)ccc23)cc1 [compound 198, N-(1-methylazetidin-3-yl)-2-(4-(methylcarbamoyl)phenyl) benzo[d]imidazo[2,1-b]thiazole-7-carboxamide]	+ (+ >3 and <5)
CNC(=O)c1ccc(-c2cn3c(n2)sc2cc(C(=O)NC4(CN)CCC4)ccc23)cc1 [compound 199, N-(1-(aminomethyl)cyclobutyl)-2-(4-(methylcarbamoyl)phenyl) benzo[d]imidazo[2,1-b]thiazole-7-carboxamide]	+ (+ >3 and <5)
CNC(=O)c1ccc(-c2cn3c(n2)sc2cc(C(=O)NCC[C@H](C)N)ccc23)cc1 [compound 200, (S)-N-(3-aminobutyl)-2-(4-(methylcarbamoyl)phenyl) benzo[d]imidazo[2,1-b]thiazole-7-carboxamide]	+ (+ >3 and <5)
CNC(=O)c1ccc(-c2cn3c(n2)sc2cc(C(=O)NCCOC)ccc23)cc1 [compound 201, N-(2-methoxyethyl)-2-(4-(methylcarbamoyl)phenyl) benzo[d]imidazo[2,1-b]thiazole-7-carboxamide]	+ (+ >3 and <5)
CNC(=O)c1ccc(-c2cn3c(n2)sc2cc(C(=O)NCCc4cnn(C)c4)ccc23)cc1 [compound 202, N-(2-(1-methyl-1H-pyrazol-4-yl)ethyl)-2-(4-(methylcarbamoyl)phenyl) benzo[d]imidazo[2,1-b]thiazole-7-carboxamide]	− (− ≤3)
CNC(=O)c1ccc(-c2cn3c(n2)sc2cc(C(=O)NCC(C)OC)ccc23)cc1 (centres unmarked) [compound 203, N-(2-methoxypropyl)-2-(4-(methylcarbamoyl)phenyl) benzo[d]imidazo[2,1-b]thiazole-7-carboxamide]	+ (+ >3 and <5)
CNC(=O)c1ccc(-c2cn3c(n2)sc2cc(C(=O)NCC4CCCO4)ccc23)cc1 (centres unmarked) [compound 204, 2-(4-(methylcarbamoyl)phenyl)-N-((tetrahydrofuran-2-yl)methyl)benzo[d]imidazo [2,1-b]thiazole-7-carboxamide]	+ (+ >3 and <5)
CNC(=O)c1ccc(-c2cn3c(n2)sc2cc(C(=O)NC4CCCCC4N)ccc23)cc1 (centres unmarked) [compound 205, N-(2-aminocyclohexyl)-2-(4-(methylcarbamoyl)phenyl) benzo[d]imidazo[2,1-b]thiazole-7-carboxamide]	+ (+ >3 and <5)
CNC(=O)c1ccc(-c2cn3c(n2)sc2cc(C(=O)NC4(C(F)(F)F)COC4)ccc23)cc1 [compound 206, 2-(4-(methylcarbamoyl)phenyl)-N-(3-(trifluoromethyl)oxetan-3-yl)benzo[d]imidazo[2,1-b]thiazole-7-carboxamide]	− (− ≤3)
CNC(=O)c1ccc(-c2cn3c(n2)sc2cc(C(=O)N[C@H]4CCCN(C)C4)ccc23)cc1 [compound 207, (S)-2-(4-(methylcarbamoyl)phenyl)-N-(1-methylpiperidin-3-yl)benzo[d]imidazo[2,1-b]thiazole-7-carboxamide]	++ (++ ≥5 and <6)
CCC(CNC(=O)c1ccc2c(c1)sc1nc(-c3ccc(C(=O)NC)cc3)cn12)N(C)C (centres unmarked) [compound 208, N-(2-(dimethylamino)butyl)-2-(4-(methylcarbamoyl)phenyl) benzo[d]imidazo[2,1-b]thiazole-7-carboxamide]	+ (+ >3 and <5)
CNC(=O)c1ccc(-c2cn3c(n2)sc2cc(C(=O)N[C@H]4CCN(C5CCOCC5)C4)ccc23)cc1 [compound 209, (S)-2-(4-(methylcarbamoyl)phenyl)-N-(1-(tetrahydro-2H-pyran-4-yl)pyrrolidin-3-yl)benzo[d]imidazo[2,1-b]thiazole-7-carboxamide]	+ (+ >3 and <5)
CNC(=O)c1ccc(-c2cn3c(n2)sc2cc(C(=O)NCC4(C)CCOC4)ccc23)cc1 (centres unmarked) [compound 210, 2-(4-(methylcarbamoyl)phenyl)-N-((3-methyltetrahydrofuran-3-yl)methyl)benzo[d]imidazo [2,1-b]thiazole-7-carboxamide]	+ (+ >3 and <5)
CNC(=O)c1ccc(-c2cn3c(n2)sc2cc(C(=O)NCCOC(C)C)ccc23)cc1 [compound 211, N-(2-isopropalyethyl)-2-(4-(methylcarbamoyl)phenyl) benzo[d]imidazo[2,1-b]thiazole-7-carboxamide]	− (− ≤3)
